pIC50: −log10 of the molar value.
Test system: 454973-116-R2-J3-PDC spheroids, viability, % test/control
Test: Anticancer human tumor 454973-116-R2-J3-PDC patient-derived pancreatic carcinoma cell line growth inhibition [GQUAD]
Settings: spheroids with HUVEC and MSC; for pIC50: curve of first compound; for viability, T/C: stronger effect = lower value
Summary of the method: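 Viability of tumor cells grown as complex spheroids with endothelial and stromal cells, exposed to drug combinations. Top concentration at or near clinical Cmax (else 10 microM), diluted in half-log increments.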

[1] = second compound 0.0316 µM, first compound 0.0316 µM
[2] = second compound 0.0316 µM, first compound 0.1 µM
[3] = second compound 0.0316 µM, first compound 0.316 µM
[4] = second compound 0.0316 µM, first compound 1 µM
[5] = second compound 0.0316 µM, first compound 3.16 µM
[6] = second compound 0.0316 µM, first compound 10 µM
[7] = second compound 0.1 µM, first compound 0.0316 µM
[8] = second compound 0.1 µM, first compound 0.1 µM
[9] = second compound 0.1 µM, first compound 0.316 µM
[10] = second compound 0.1 µM, first compound 1 µM
[11] = second compound 0.1 µM, first compound 3.16 µM
[12] = second compound 0.1 µM, first compound 10 µM
[13] = second compound 0.316 µM, first compound 0.0316 µM
[14] = second compound 0.316 µM, first compound 0.1 µM
[15] = second compound 0.316 µM, first compound 0.316 µM
[16] = second compound 0.316 µM, first compound 1 µM
[17] = second compound 0.316 µM, first compound 3.16 µM
[18] = second compound 0.316 µM, first compound 10 µM
[19] = second compound 1 µM, first compound 0.0316 µM
[20] = second compound 1 µM, first compound 0.1 µM
[21] = second compound 1 µM, first compound 0.316 µM
[22] = second compound 1 µM, first compound 1 µM
[23] = second compound 1 µM, first compound 3.16 µM
[24] = second compound 1 µM, first compound 10 µM
[25] = second compound 3.16 µM, first compound 0.0316 µM
[26] = second compound 3.16 µM, first compound 0.1 µM
[27] = second compound 3.16 µM, first compound 0.316 µM
[28] = second compound 3.16 µM, first compound 1 µM
[29] = second compound 3.16 µM, first compound 3.16 µM
[30] = second compound 3.16 µM, first compound 10 µM
[31] = second compound 10 µM, first compound 0.0316 µM
[32] = second compound 10 µM, first compound 0.1 µM
[33] = second compound 10 µM, first compound 0.316 µM
[34] = second compound 10 µM, first compound 1 µM
[35] = second compound 10 µM, first compound 3.16 µM
[36] = second compound 10 µM, first compound 10 µM
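Further: spheroids exposed to compounds for seven days.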
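Wherever viability, T/C is given: 100% = DMSO vehicle control viability.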

`O=C(c1cc(Cc2n[nH]c(=O)c3ccccc23)ccc1F)N1CCN(C(=O)C2CC2)CC1` + Cc1cnc(CNC(=O)c2c(=O)c3ccc(N4CCCN(C)CC4)nc3n3c2sc2ccccc23)cn1 was tested, and the pIC50 (second compound 0.0316 µM) was 5.05, the pIC50 (second compound 0.1 µM) was 5.12 and the pIC50 (second compound 0.316 µM) was 5.21. The pIC50 (second compound 1 µM) was < 5.00, the pIC50 (second compound 3.16 µM) was < 5.00 and the pIC50 (second compound 10 µM) was > 7.50. It also gave a viability, T/C [1] of 103%, a viability, T/C [2] of 85.1% and a viability, T/C [3] of 90.5%. For the same molecule, the viability, T/C [4] was 82.8%, the viability, T/C [5] was 80.9% and the viability, T/C [6] was 46.5%. For the same molecule, the viability, T/C [7] was 81.1%, the viability, T/C [8] was 80.4% and the viability, T/C [9] was 72.2%. For the same molecule, the viability, T/C [10] was 65.5%, the viability, T/C [11] was 65.8% and the viability, T/C [12] was 44.5%. The viability, T/C [13] was 69.1%, the viability, T/C [14] was 67.4% and the viability, T/C [15] was 61.7%. It also gave a viability, T/C [16] of 65.3%, a viability, T/C [17] of 54.9% and a viability, T/C [18] of 45.9%. The viability, T/C [19] was 60.5%, the viability, T/C [20] was 65.3% and the viability, T/C [21] was 64%. It also gave a viability, T/C [22] of 63.7%, a viability, T/C [23] of 58.2% and a viability, T/C [24] of 55.4%. For the same molecule, the viability, T/C [25] was 74.2%, the viability, T/C [26] was 69.1% and the viability, T/C [27] was 64%. For the same molecule, the viability, T/C [28] was 60.9%, the viability, T/C [29] was 58.3% and the viability, T/C [30] was 56.2%. The viability, T/C [31] was 0.27%, the viability, T/C [32] was 18.9% and the viability, T/C [33] was 15.1%. It also gave a viability, T/C [34] of 35.9%, a viability, T/C [35] of 0.4% and a viability, T/C [36] of 0.28%.
With `Cc1cccc(N(C)C(=O)C2C(O)CCN2c2nc(C)cc(C(F)(F)F)c2C#N)c1` (centres undefined) + Cc1[nH]c2ccc(F)cc2c1-c1nc2c3cccnc3c3ncccc3c2[nH]1 the pIC50 (second compound 0.0316 µM) was < 5.00, the pIC50 (second compound 0.1 µM) was < 5.00 and the pIC50 (second compound 0.316 µM) was < 5.00. The pIC50 (second compound 1 µM) was < 5.00, the pIC50 (second compound 3.16 µM) was < 5.00 and the pIC50 (second compound 10 µM) was < 5.00. The viability, T/C [1] was 102%, the viability, T/C [2] was 94.9% and the viability, T/C [3] was 104%. It also gave a viability, T/C [4] of 102%, a viability, T/C [5] of 108% and a viability, T/C [6] of 98%. It also gave a viability, T/C [7] of 102%, a viability, T/C [8] of 100% and a viability, T/C [9] of 103%. It also gave a viability, T/C [10] of 97.7%, a viability, T/C [11] of 115% and a viability, T/C [12] of 108%. It also gave a viability, T/C [13] of 104%, a viability, T/C [14] of 104% and a viability, T/C [15] of 109%. The viability, T/C [16] was 101%, the viability, T/C [17] was 109% and the viability, T/C [18] was 110%. For the same molecule, the viability, T/C [19] was 103%, the viability, T/C [20] was 105% and the viability, T/C [21] was 113%. For the same molecule, the viability, T/C [22] was 107%, the viability, T/C [23] was 112% and the viability, T/C [24] was 106%. For the same molecule, the viability, T/C [25] was 86.8%, the viability, T/C [26] was 88.7% and the viability, T/C [27] was 97.4%. It also gave a viability, T/C [28] of 106%, a viability, T/C [29] of 103% and a viability, T/C [30] of 105%. For the same molecule, the viability, T/C [31] was 105%, the viability, T/C [32] was 95.8% and the viability, T/C [33] was 101%. It also gave a viability, T/C [34] of 90.2%, a viability, T/C [35] of 99% and a viability, T/C [36] of 101%.

From PubChem BioAssay AID2060508 (Molecular Pharmacology Branch, DTP, NCI, 2025)
